Here are results for eight compounds from ChEMBL document CHEMBL1127360, “Antipodal alpha-N-(methyl through decyl)-N-normetazocines (5,9 alpha-dimethyl-2'-hydroxy-6,7-benzomorphans): in vitro and in vivo properties” (J Med Chem, 1994).

Structures are written as SMILES. The source made the active and inactive calls. The rule behind the calls is not given here.

Experiment [1] has as its target Sigma non-opioid intracellular receptor 1 (Homo sapiens, UniProt Q99720). The experiment is described as follows: Binding affinity against sigma receptor was determined.
Experiment [2] concerns Mus musculus. In words: In vivo for its narcotic antagonistic activity of the antinociceptive effect in mouse. The experiment is classed as functional, organism-based.
For experiment [3], the system named is Mus musculus. In words: In vivo antinociceptive activity at 30 mg/kg was tested through hot plate (HP) by placing mouse on hot plate, and calculating number of times it jumps or licks its paw in 5 seconds. The experiment is classed as functional.
In experiment [4] the test system is Mus musculus. In words: In vivo antinociceptive activity at 30 mg/kg was tested through injecting 2 mg/kg ip phenylquinone, activity calculated by total number of abdominal-stretches per group counted over a 1 min period. The experiment is classed as functional.
The test system of experiment [5] is Mus musculus. In words: In vivo antinociceptive activity was tested through tail flick (TF) with this compound in mouse at 30 mg/kg concentration. The experiment is classed as functional.
The next experiment has as its target Mu-type opioid receptor (Rattus norvegicus, UniProt P33535). The experiment is described as follows: Inhibition against mu receptor using [3H]DAMGO in homogenate of rat brain cerebellum. The experiment is classed as tissue-based.
The target of the next experiment is Glutamate NMDA receptor. The experiment is described as follows: Inhibition using [3H]TCP in homogenate of rat brain. The experiment is classed as tissue-based.
Experiment [6] relates to Mus musculus. The experiment is described as follows: In vivo antinociceptive activity was tested through hot plate (HP) and counting jumps or paw licks. The experiment is classed as functional, organism-based.
For experiment [7], the system named is Mus musculus. The experiment is described as follows: In vivo antinociceptive activity through injecting 2 mg/kg ip phenylquinone, activity calculated by total number of abdominal-stretches per group counted over a 1 min period; Inactive. The experiment is classed as functional, organism-based. Set-up: dose 2 mg/kg.
Experiment [8] has as its system Mus musculus. In words: In vivo antinociceptive activity was tested through tail flick (TF) with this compound in mouse. The experiment is classed as functional, organism-based.
Experiment [9] has as its system Mus musculus. In words: Compound was tested in vivo for its narcotic antagonistic activity of the antinociceptive effect in mouse at 30 mg/kg. The experiment is classed as functional.
Another experiment deals with Cercopithecidae. In words: Ratio of potencies against Mu receptor of monkey to that of rat.
Experiment [10] addresses Mu-type opioid receptor (Homo sapiens) (UniProt P35372). The experiment is described as follows: Ratio of potencies against Mu receptor to that of kappa receptor of monkey. The note with it: Cercopithecidae; target entry is the homologue from another species.
The target of experiment [11] is T1, Glutamate NMDA receptor (Rattus norvegicus) (UniProt P35439+Q00959+Q00960+Q00961+Q62645+Q8VHN2+Q9R1M7). The experiment is described as follows: Ratio of potencies against PCP receptor to that of Mu receptor of rat. The experiment is classed as protein-complex assay.
The species entered for experiment [12] is Cavia porcellus. The experiment is described as follows: Ratio of potencies against PCP receptor to that of sigma receptor.
Experiment [13] is filed under the species Cavia porcellus. In words: Ratio of potencies against sigma receptor to that of Mu receptor of rat.
For experiment [14], the system named is Mus musculus. The experiment is described as follows: In vivo antinociceptive activity at 20 mg/kg was tested through injecting 2 mg/kg ip phenylquinone, activity calculated by total number of abdominal-stretches per group counted over a 1 min period. The experiment is classed as functional.
For experiment [15], the system named is Mus musculus. The experiment is described as follows: In vivo antinociceptive activity was tested through injecting 2 mg/kg ip phenylquinone, activity calculated by total number of abdominal-stretches. The experiment is classed as functional, Abdomen. The note with it: route intraperitoneal.
Experiment [16] relates to Mus musculus. In words: Compound was tested in vivo for its narcotic antagonistic activity of the antinociceptive effect in mouse. The experiment is classed as functional.
Experiment [17] has as its system Mus musculus. In words: In vivo antinociceptive activity at 1 mg/kg was tested through hot plate (HP) by placing mouse on hot plate, and calculating number of times it jumps or licks its paw in 5 seconds. The experiment is classed as functional.
For experiment [18], the system named is Mus musculus. In words: In vivo antinociceptive activity at 10 mg/kg was tested through hot plate (HP) by placing mouse on hot plate, and calculating number of times it jumps or licks its paw in 5 seconds. The experiment is classed as functional.
Experiment [19] concerns Mus musculus. In words: In vivo antinociceptive activity at 10 mg/kg was tested through injecting 2 mg/kg ip phenylquinone, activity calculated by total number of abdominal-stretches per group counted over a 1 min period. The experiment is classed as functional.
Experiment [20] deals with Mu-type opioid receptor (Rattus norvegicus) (UniProt P33535). The experiment is described as follows: Ratio of potencies of (+) and (-) enantiomers against Mu receptors in Rats.
Sequence of Mu-type opioid receptor (Rattus norvegicus) (P33535 whole entry): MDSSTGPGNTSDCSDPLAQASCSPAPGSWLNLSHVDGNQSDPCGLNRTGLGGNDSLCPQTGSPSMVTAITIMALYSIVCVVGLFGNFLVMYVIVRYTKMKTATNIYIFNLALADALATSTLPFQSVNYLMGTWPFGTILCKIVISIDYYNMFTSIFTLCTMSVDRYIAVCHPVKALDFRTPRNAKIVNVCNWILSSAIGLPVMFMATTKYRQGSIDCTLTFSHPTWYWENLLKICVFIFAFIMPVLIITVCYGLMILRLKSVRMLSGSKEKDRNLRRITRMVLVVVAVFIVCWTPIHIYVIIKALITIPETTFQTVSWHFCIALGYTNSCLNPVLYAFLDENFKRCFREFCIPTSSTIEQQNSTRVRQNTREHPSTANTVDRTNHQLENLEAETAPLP
The target in experiment [21] is Mu-type opioid receptor (Homo sapiens) (UniProt P35372). In words: Ratio of potencies of (+) and (-) enantiomers against Mu receptors in monkeys. The conditions noted are these: Cercopithecidae; target entry is the homologue from another species.
Sequence of Mu-type opioid receptor (Homo sapiens) (P35372 whole entry): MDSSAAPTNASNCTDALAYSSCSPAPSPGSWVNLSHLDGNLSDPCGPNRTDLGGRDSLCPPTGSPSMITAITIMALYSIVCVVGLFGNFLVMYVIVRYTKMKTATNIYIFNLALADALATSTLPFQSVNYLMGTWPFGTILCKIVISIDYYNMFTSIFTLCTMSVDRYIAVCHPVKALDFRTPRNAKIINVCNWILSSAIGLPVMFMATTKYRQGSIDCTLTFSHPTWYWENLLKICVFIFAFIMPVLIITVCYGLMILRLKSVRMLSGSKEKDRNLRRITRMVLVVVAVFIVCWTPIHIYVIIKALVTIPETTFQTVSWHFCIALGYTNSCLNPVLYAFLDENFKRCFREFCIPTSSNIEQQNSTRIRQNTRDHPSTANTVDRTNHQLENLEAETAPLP
The target of experiment [22] is T1, Glutamate NMDA receptor (Rattus norvegicus). The experiment is described as follows: Ratio of potencies of (+) and (-) enantiomers against PCP in rats.
The target of experiment [23] is Kappa-type opioid receptor (Homo sapiens) (UniProt P41145). In words: Ratio of potencies of (+) and (-) enantiomers against kappa receptors in monkeys. The note with it: Cercopithecidae; target entry is the homologue from another species.
Sequence of Kappa-type opioid receptor (Homo sapiens) (P41145 whole entry): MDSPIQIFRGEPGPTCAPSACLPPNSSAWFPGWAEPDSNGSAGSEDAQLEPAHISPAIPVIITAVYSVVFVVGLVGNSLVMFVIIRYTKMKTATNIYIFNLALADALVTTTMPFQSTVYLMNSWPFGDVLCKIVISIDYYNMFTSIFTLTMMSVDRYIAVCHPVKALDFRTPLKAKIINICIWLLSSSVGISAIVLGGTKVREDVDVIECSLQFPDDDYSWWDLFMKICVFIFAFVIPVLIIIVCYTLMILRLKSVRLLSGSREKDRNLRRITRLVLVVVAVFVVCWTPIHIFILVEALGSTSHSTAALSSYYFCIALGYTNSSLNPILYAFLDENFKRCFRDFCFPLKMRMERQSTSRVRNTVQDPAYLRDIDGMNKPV

Sequence of Mu-type opioid receptor (P33535 whole entry): as the sequence (P33535 whole entry) above
Sequence of Sigma non-opioid intracellular receptor 1 (Q99720 whole entry): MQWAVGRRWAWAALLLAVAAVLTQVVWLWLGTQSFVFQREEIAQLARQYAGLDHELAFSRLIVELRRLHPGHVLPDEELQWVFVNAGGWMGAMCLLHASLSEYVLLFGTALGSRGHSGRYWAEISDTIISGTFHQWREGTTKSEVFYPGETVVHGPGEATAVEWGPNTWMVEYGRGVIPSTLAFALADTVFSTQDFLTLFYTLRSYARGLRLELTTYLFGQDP

The Ki is the equilibrium dissociation constant of an inhibitor or competing ligand from its target. In experiment [1], `C=CCN1CCC2c3cc(O)ccc3CC1C2C` (single isomer, unassigned; (-)) gave an inhibitory constant (Ki) of 4.3 µM.

As usually defined, the inhibition in vivo is how much of the control response was suppressed. As usually defined, the Inhibition is the percentage by which the read-out fell short of the control. For `C[C@H]1C2Cc3ccc(O)cc3[C@@]1(C)CCN2`, in the experiment with Mus musculus [2], the result was inactive. In addition, the inhibition in vivo at 30 mg/kg was 38% with Mus musculus [3] and 13% in the experiment on Mus musculus [5]. In the experiment with Mus musculus [4], the Inhibition is recorded as 66%. The Ki on Mu-type opioid receptor came to 0.023 µM; at Glutamate NMDA receptor, 0.197 µM.

Take `CCCN1CC[C@@]2(C)c3cc(O)ccc3CC1[C@H]2C`: the result with Mus musculus [6], with Mus musculus [7] and with Mus musculus [8] was inactive. The compound also showed an inhibition in vivo at 30 mg/kg in the experiment with Mus musculus [9] of 20%. Moreover, the Ki stood at 5.22 µM at Mu-type opioid receptor and 0.606 µM on Glutamate NMDA receptor. The Ratio with Cercopithecidae turned out to be 0.2; in experiment [10] it was 0.5; in experiment [11], 0.1; in the experiment filed under Cavia porcellus [12], 14.1; in the experiment filed under Cavia porcellus [13], 0.008.

As for `C[C@@H]1C2Cc3ccc(O)cc3[C@]1(C)CCN2C`, the outcome in the experiment on Mus musculus [6] and with Mus musculus [8] was inactive. In the experiment on Mus musculus [14], the Inhibition was 43%. Also, the values for the Ki at Mu-type opioid receptor and at Glutamate NMDA receptor were 4.97 µM and 0.041 µM, respectively. In addition, the Ratio with Cercopithecidae was 0.3; in experiment [10], 2.7; in experiment [11], 0.008; in the experiment filed under Cavia porcellus [12], 0.03; in the experiment listed under Cavia porcellus [13], 0.3.

For the compound `CCN1CC[C@]2(C)c3cc(O)ccc3CC1[C@@H]2C`, the Activity with Mus musculus [15] is recorded as 1.4; in the experiment on Mus musculus [16], 3.7. Moreover, in the experiment with Mus musculus [8], the outcome was inactive. The inhibition in vivo at 1 mg/kg in the experiment on Mus musculus [17] was 13%. For the same compound, the inhibition in vivo at 30 mg/kg with Mus musculus [3] was 25%. Also, the inhibition in vivo at 10 mg/kg in the experiment with Mus musculus [18] is 25%. Moreover, the Ki turned out to be 0.032 µM at Mu-type opioid receptor and 1.87 µM on Glutamate NMDA receptor.

Take `C[C@@H]1C2Cc3ccc(O)cc3[C@]1(C)CCN2`: in the experiment with Mus musculus [2], the outcome was inactive. Testing at 30 mg/kg in the experiment with Mus musculus [5] gave an inhibition in vivo of 27%. Besides, in the experiment with Mus musculus [18], the inhibition in vivo at 10 mg/kg is 13%. In addition, the Inhibition with Mus musculus [19] is given as 23%. Further, the inhibitory constant (Ki) was determined as 0.47 µM on Mu-type opioid receptor and 0.03 µM on Glutamate NMDA receptor.

In the case of `CCCCN1CC[C@]2(C)c3cc(O)ccc3CC1[C@@H]2C`, the result in the experiment with Mus musculus [6] and in the experiment on Mus musculus [8] was inactive. Also, the Activity in the experiment on Mus musculus [16] stood at 1.5. In addition, in the experiment with Mus musculus [4], the Inhibition was 40%. In addition, the Ki is 0.013 µM at Mu-type opioid receptor and 0.613 µM on Glutamate NMDA receptor. Further, the Ratio worked out at 221 in [20]; 365 in experiment [21]; 1.5 in experiment [22]; 160 in experiment [23]; 0.3 in the experiment on Cercopithecidae; 1.4 in [10]. Also, the Ratio in [11] came out at 47; in the experiment filed under Cavia porcellus [12], 5.9; in the experiment filed under Cavia porcellus [13], 8.

In [1], `C=CCN1CC[C@]2(C)c3cc(O)ccc3CC1[C@@H]2C` (single isomer, unassigned; (+)) showed an inhibition constant Ki of 0.124 µM.
